Measured values published in patent US11293927B2, “Screening methods for PARP modulators” (Ribon Therapeutics, Inc., priority 2018, dated 2022).
pIC50: −log10 of the molar value.

Columns and labels:
Format in all cases: cell-based
full-length TIPARP = biological target: T1, full-length TIPARP (Homo sapiens, UniProt Q7Z3E1); test: NanoBRET probe displacement assay (Probe A) in live 293T cells, full-length TIPARP; settings: NanoBRET displacement of Probe A, NanoLuc-tagged full-length TIPARP in live 293T cells
T1 construct: 1-657 of; expressed in transfected cells; host or cells: 293T cells (ATCC), pcDNA3.1
T1 sequence (Q7Z3E1 1-657): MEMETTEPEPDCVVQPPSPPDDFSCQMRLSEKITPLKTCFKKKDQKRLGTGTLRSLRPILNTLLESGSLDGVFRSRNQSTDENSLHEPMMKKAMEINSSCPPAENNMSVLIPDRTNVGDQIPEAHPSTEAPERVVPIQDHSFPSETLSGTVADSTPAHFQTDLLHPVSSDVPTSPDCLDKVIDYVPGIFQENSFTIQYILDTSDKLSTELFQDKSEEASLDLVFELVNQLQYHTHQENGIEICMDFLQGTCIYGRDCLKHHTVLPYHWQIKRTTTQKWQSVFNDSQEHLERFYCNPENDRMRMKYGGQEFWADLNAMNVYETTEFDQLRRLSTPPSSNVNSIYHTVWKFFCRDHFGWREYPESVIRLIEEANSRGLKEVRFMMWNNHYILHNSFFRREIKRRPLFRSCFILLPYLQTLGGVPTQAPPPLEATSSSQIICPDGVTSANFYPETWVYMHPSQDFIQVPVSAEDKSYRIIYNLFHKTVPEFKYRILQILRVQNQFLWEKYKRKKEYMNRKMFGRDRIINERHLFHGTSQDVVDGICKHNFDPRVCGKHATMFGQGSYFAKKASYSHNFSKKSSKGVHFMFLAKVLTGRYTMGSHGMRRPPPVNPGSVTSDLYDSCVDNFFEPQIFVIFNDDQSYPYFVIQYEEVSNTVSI
Method: (§1) MonoPARP genes from Table 5 were cloned into the pcDNA3.1-mammalian expression vector as a NanoLuc fusion with NanoLuc on the N- or C-terminus as indicated. The sequence of the NanoLuc tag is as follows: [table] Displacement of a fluorescently-labeled compound Probe A binding to NanoLuc-tagged monoPARP enzymes was measured in live cells using a bioluminescence resonance energy transfer (NanoBRET) assay. TIPARP, PARP10, PARP12 or PARP14 fused to a NanoLuc tag were overexpressed in 293T cells (ATCC) using the plasmids described herein. Plasmid DNA and empty vector DNA were added to phenol red free OptiMEM (Thermo Fisher) as shown in Table 6 in a total volume of 2.456 mL. 157 μL of Fugene HD (Promega) was added to the DNA mixture and allowed to incubate 5 min at 25° C. [table] Next, 2.375 mL of the plasmid-Fugene mixture were added to 20 million 293T cells in DMEM (Thermo Fisher) supplemented with 10% FBS (VWR). The transfection was incubated for 24 h at 37° C. in an incubator containing air supplemented with 5% CO2. The cells were resuspended in phenol red free OptiMEM media. 40 μL of cells were then added to white polystyrene 384-well non-binding surface microplate (Corning). […] Filtered luminescence was measured on an Envision (Perkin Elmer) equipped with a dual 585 nm mirror, 460±40 nm bandpass filter (donor) and 610±50 nm longpass filter (acceptor). […]

catalytic domain TIPARP = biological target: T2, catalytic domain TIPARP (Homo sapiens, UniProt Q7Z3E1); test: NanoBRET probe displacement assay (Probe A) in live 293T cells, catalytic domain TIPARP; settings: NanoBRET displacement of Probe A, NanoLuc-tagged catalytic domain TIPARP in live 293T cells
T2 construct: 456-657 of; expressed in transfected cells; host or cells: 293T cells (ATCC), pcDNA3.1
T2 sequence (Q7Z3E1 456-657): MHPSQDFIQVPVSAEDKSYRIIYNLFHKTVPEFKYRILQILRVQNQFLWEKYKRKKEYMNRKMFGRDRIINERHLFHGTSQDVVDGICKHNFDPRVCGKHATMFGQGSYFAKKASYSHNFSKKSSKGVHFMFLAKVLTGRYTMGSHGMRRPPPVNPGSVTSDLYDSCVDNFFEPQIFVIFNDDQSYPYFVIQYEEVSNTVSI
Method: as §1

PARP12 = biological target: T3, PARP12 (Homo sapiens, UniProt Q9H0J9); test: NanoBRET probe displacement assay (Probe A) in live 293T cells, PARP12; set-up: 489-684 of; expressed in transfected cells; host or cells: 293T cells (ATCC), pcDNA3.1; settings: NanoBRET displacement of Probe A, NanoLuc-tagged PARP12 in live 293T cells
T3 sequence (Q9H0J9 489-684): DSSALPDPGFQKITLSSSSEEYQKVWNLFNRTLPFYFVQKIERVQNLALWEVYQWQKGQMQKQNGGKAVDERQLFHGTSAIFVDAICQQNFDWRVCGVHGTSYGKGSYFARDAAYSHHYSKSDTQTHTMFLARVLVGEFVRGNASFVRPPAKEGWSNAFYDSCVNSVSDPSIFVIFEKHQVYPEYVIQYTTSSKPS
Method: as §1

PARP10 = biological target: T4, PARP10 (Homo sapiens, UniProt Q53GL7); test: NanoBRET probe displacement assay (Probe A) in live 293T cells, PARP10; settings: NanoBRET displacement of Probe A, NanoLuc-tagged PARP10 in live 293T cells
T4 sequence (Q53GL7 808-1025): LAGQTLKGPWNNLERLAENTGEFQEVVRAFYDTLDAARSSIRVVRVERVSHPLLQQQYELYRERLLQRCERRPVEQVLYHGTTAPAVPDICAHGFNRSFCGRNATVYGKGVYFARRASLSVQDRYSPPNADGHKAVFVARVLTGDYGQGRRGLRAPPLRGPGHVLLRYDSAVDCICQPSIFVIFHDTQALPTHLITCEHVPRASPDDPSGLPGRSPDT
Method: as §1

In the case of N#Cc1ccc(N2CCN(C(=O)c3cccc(OC[C@@H]4c5ccccc5CN4c4cn[nH]c(=O)c4C(F)(F)F)c3)CC2)nc1 [Compound B, 6-[4-[(3-[[(1S)-2-[6-Oxo-5-(trifluoromethyl)-1,6-dihydropyridazin-4-yl]-2,3-dihydro-1H-isoindol-1-yl]methoxy]phenyl)carbonyl]piperazin-1-yl]pyridine-3-carbonitrile], the pIC50 (full-length TIPARP) was 8.40, the pIC50 (catalytic domain TIPARP) was 8.15 and the pIC50 (PARP12) was 6.77.
CC(=O)N1CCC(Oc2ccc3c(n2)CN(c2cn[nH]c(=O)c2C(F)(F)F)C3)CC1 [Compound C, 5-[2-[(1-Acetylpiperidin-4-yl)oxy]-5H,6H,7H-pyrrolo[3,4-b]pyridin-6-yl]-4-(trifluoromethyl)-2,3-dihydropyridazin-3-one] was tested, and the pIC50 (PARP10) was 8.40.
